From US6395739B1, “N-phenyl-N′-phenylpopylpiperazine derivatives and process for the preparation” (Zeria Pharmaceutical Co., Ltd., priority 1998, dated 2002)
Structures can show the parent of a compound that is named as a salt.

Columns and labels:
α1-adrenoceptor [1] = experiment: α1-adrenoceptor blocking activity, phenylephrine-induced contraction of rabbit prostatic urethra smooth muscle strips; set-up: species or system Rabbits; settings: rabbit prostatic urethra strip; vs phenylephrine concentration-response curve; test drug 10^-7-10^-5 M for 30 minutes; 10^-5 M propranolol present
Procedure: (§1) <α1-Adrenoceptor Blocking Activity>
(§2) Rabbits were exsanguinated to death, and the prostatic urethra and the prostate were removed and smooth muscle strips were prepared. Each strip was suspended in a 37° C. Krebs-solution-containing organ bath which had been bubbled with 95% O2 and 5% CO2. Isometric contraction under a resting tension of 1 g was recorded by an isometric transducer (by Nihon Koden: TB-651T) on a pen-type recorder (product of Nihon Denki San'ei: RECTI HORIZ 8K).
(§3) After the strips had been equilibrated for 60 minutes, contractions were elicited by use of a certain concentration of phenylephrine (10^−5 M). Subsequently, the organ bath was washed with a physiological solution, and the above procedure was repeated at 60-minute intervals of resting time until constant constriction responses of the strips were obtained. Next, phenylephrine was added cumulatively to organ bath(10^−7-3×10^−4 M), to thereby obtain concentration-response curves (control). After the resting period of 60 minutes following washing of the strip, test samples (DMSO solutions containing the test drug; 10^−7-10^−5 M) were treated for 30 minutes, and concentration-response curves of phenylephrine were obtained.
(§4) The composition of the physiological solution was as follows: NaCl 118.4 mM, KCl 4.7 mM, MgCl2 1.2 mM, CaCl2 2.5 mM, NaHCO3 25.0 mM, glucose […], and KH2PO4 1.2 mM.
(§5) In all cases, 10^−5 M propranolol (β-adrenoceptor antagonist) was added to the physiological solution 10 minutes before test sample was treated with strip.
(§6) The potency of each test drug with regard to the α1-adrenoceptor blocking activity was evaluated on the basis of calculation of pA2 (inverse of the logarithm of the concentration by mole of the antagonist which, in the presence of the antagonist, requires twice the concentration of the agonist for providing the same effect as required in the absence of the antagonist).

α1-adrenoceptor [2] = experiment: α1-adrenoceptor blocking activity, phenylephrine-induced contraction of rabbit prostate smooth muscle strips; set-up: species or system Rabbits; settings: rabbit prostate strip; vs phenylephrine concentration-response curve; test drug 10^-7-10^-5 M for 30 minutes; 10^-5 M propranolol present
Procedure: as §1, §2, §3, §4, §5, §6

Compound	pA2 Urethra (α1-adrenoceptor [1])	pA2 prostate (α1-adrenoceptor [2])
COc1ccccc1N1CCN(CC[C@H](Oc2ccc(C(=O)c3c[nH]c4ccccc34)cc2)c2ccc(C)cc2)CC1.Cl [Example 3, (S)-3-[4-[3-[4-(2-methoxyphenyl)piperazin-1-yl]-1-(4-methylphenyl)propoxy]benzoyl]indole hydrochloride]	6.29	6.89
COc1ccccc1N1CCN(CC[C@H](Oc2ccc(C#N)cc2)c2ccc(C)cc2)CC1 [Example 1, (S)-4-[3-[4-(2-methoxyphenyl)piperazin-1-yl]-1-(4-methylphenyl)propoxy]benzonitrile dihydrochloride]	8.44	8.00
COc1ccccc1N1CCN(CC[C@H](Oc2ccc(C(=O)O)cc2)c2ccc(C)cc2)CC1 [Example 2, (S)-4-[3-[4-(2-methoxyphenyl)piperazin-1-yl]-1-(4-methylphenyl)propoxy]benzoic acid]	8.73	8.67
